Columns and labels:
[1] = Acute toxicity in CD1 mouse assessed as effect on intestine at 2000 mg/kg, po measured after 2 weeks by macroscopic analysis; type: organism-based; conditions: in vivo, 336 h
[2] = Ratio of AUClast in CD1 mouse trachea to plasma assessed as (12aR)-12-(Diphenylmethyl)-7-hydroxy-3,4,12,12a-tetrahydro-1H-[1,4]oxazino[3,4-c]pyrido[2,1-f ][1,2,4]triazine-6,8-dione level at 15 mg/kg, po administered as single dose measured up to 24 hrs by LC-MS/MS analysis; type: ADME, organism-based; conditions: in vivo
[3] = MRTlast in CD1 mouse spleen assessed as (12aR)-12-(Diphenylmethyl)-7-hydroxy-3,4,12,12a-tetrahydro-1H-[1,4]oxazino[3,4-c]pyrido[2,1-f ][1,2,4]triazine-6,8-dione level at 15 mg/kg, po administered as single dose measured up to 24 hrs by LC-MS/MS analysis; type: ADME, organism-based; conditions: in vivo
[4] = MRTlast in CD1 mouse muscle assessed as (12aR)-12-(Diphenylmethyl)-7-hydroxy-3,4,12,12a-tetrahydro-1H-[1,4]oxazino[3,4-c]pyrido[2,1-f ][1,2,4]triazine-6,8-dione level at 15 mg/kg, po administered as single dose measured up to 24 hrs by LC-MS/MS analysis; type: ADME, organism-based, Muscle tissue; conditions: in vivo
[5] = AUClast in CD1 mouse lung assessed as (12aR)-12-(Diphenylmethyl)-7-hydroxy-3,4,12,12a-tetrahydro-1H-[1,4]oxazino[3,4-c]pyrido[2,1-f ][1,2,4]triazine-6,8-dione level at 15 mg/kg, po administered as single dose measured up to 24 hrs by LC-MS/MS analysis; type: ADME, organism-based; conditions: in vivo
[6] = Cmax in CD1 mouse muscle assessed as (12aR)-12-(Diphenylmethyl)-7-hydroxy-3,4,12,12a-tetrahydro-1H-[1,4]oxazino[3,4-c]pyrido[2,1-f ][1,2,4]triazine-6,8-dione level at 15 mg/kg, po administered as single dose measured up to 24 hrs by LC-MS/MS analysis; type: ADME, organism-based, Muscle tissue; design: dose 15 mg/kg, route oral; conditions: in vivo
[7] = Ratio of Cmax in CD1 mouse lung to plasma assessed as (12aR)-12-(Diphenylmethyl)-7-hydroxy-3,4,12,12a-tetrahydro-1H-[1,4]oxazino[3,4-c]pyrido[2,1-f ][1,2,4]triazine-6,8-dione level at 15 mg/kg, po administered as single dose by LC-MS/MS analysis; type: ADME, organism-based; conditions: other tissue
[8] = Cytotoxicity against human HepG2 cells assessed as reduction in cell viability measured after 24 hrs in presence of galactose by MTT assay; type: cell-based
[9] = Tmax in CD1 mouse lung assessed as (12aR)-12-(Diphenylmethyl)-7-hydroxy-3,4,12,12a-tetrahydro-1H-[1,4]oxazino[3,4-c]pyrido[2,1-f ][1,2,4]triazine-6,8-dione level at 15 mg/kg, po administered as single dose measured up to 24 hrs by LC-MS/MS analysis; type: ADME, organism-based; conditions: in vivo
[10] = AUClast in CD1 mouse plasma assessed as (12aR)-12-(Diphenylmethyl)-7-hydroxy-3,4,12,12a-tetrahydro-1H-[1,4]oxazino[3,4-c]pyrido[2,1-f ][1,2,4]triazine-6,8-dione level at 15 mg/kg, po administered as single dose by LC-MS/MS analysis; type: ADME, organism-based; design: dose 15 mg/kg, time 0 - last, route oral; conditions: in vivo
[11] = Cmax in CD1 mouse trachea assessed as (12aR)-12-(Diphenylmethyl)-7-hydroxy-3,4,12,12a-tetrahydro-1H-[1,4]oxazino[3,4-c]pyrido[2,1-f ][1,2,4]triazine-6,8-dione level at 15 mg/kg, po administered as single dose measured up to 24 hrs by LC-MS/MS analysis; type: ADME, organism-based; design: dose 15 mg/kg, route oral; conditions: in vivo
[12] = Cmax in CD1 mouse liver assessed as baloxavir acid level at 15 mg/kg, po administered as single dose measured up to 24 hrs by LC-MS/MS analysis; type: ADME, organism-based; design: dose 15 mg/kg, route oral; conditions: in vivo
[13] = AUCinfinity in CD1 mouse liver assessed as baloxavir acid level at 15 mg/kg, po administered as single dose measured up to 24 hrs by LC-MS/MS analysis; type: ADME, organism-based; design: dose 15 mg/kg, route oral, time infinity; conditions: in vivo
[14] = Ratio of AUClast in CD1 mouse kidney to plasma assessed as baloxavir acid level at 15 mg/kg, po administered as single dose measured up to 24 hrs by LC-MS/MS analysis; type: ADME, organism-based; conditions: other tissue
[15] = Cmax in CD1 mouse spleen assessed as baloxavir acid level at 15 mg/kg, po administered as single dose measured up to 24 hrs by LC-MS/MS analysis; type: ADME, organism-based; design: dose 15 mg/kg, route oral; conditions: in vivo
[16] = AUClast in CD1 mouse heart assessed as baloxavir acid level at 15 mg/kg, po administered as single dose measured up to 24 hrs by LC-MS/MS analysis; type: ADME, organism-based; conditions: in vivo
[17] = Elimination rate constant in CD1 mouse kidney assessed as baloxavir acid level at 15 mg/kg, po administered as single dose measured up to 24 hrs by LC-MS/MS analysis; type: ADME, organism-based; conditions: in vivo
[18] = Elimination rate constant in CD1 mouse small intestine assessed as baloxavir acid level at 15 mg/kg, po administered as single dose measured up to 24 hrs by LC-MS/MS analysis; type: ADME, organism-based; conditions: in vivo
[19] = AUClast in CD1 mouse muscle assessed as baloxavir acid level at 15 mg/kg, po administered as single dose measured up to 24 hrs by LC-MS/MS analysis; type: ADME, organism-based, Muscle tissue; conditions: in vivo
[20] = Cmax in CD1 mouse blood assessed as baloxavir acid level at 15 mg/kg, po administered as single dose measured up to 24 hrs by LC-MS/MS analysis; type: ADME, organism-based; design: dose 15 mg/kg, route oral; conditions: in vivo
[21] = Ratio of AUClast in CD1 mouse brain to plasma assessed as baloxavir acid level at 15 mg/kg, po administered as single dose measured up to 24 hrs by LC-MS/MS analysis; type: ADME, organism-based
[22] = MRTlast in CD1 mouse heart assessed as baloxavir acid level at 15 mg/kg, po administered as single dose measured up to 24 hrs by LC-MS/MS analysis; type: ADME, organism-based; conditions: in vivo
[23] = Tmax in CD1 mouse liver assessed as baloxavir acid level at 15 mg/kg, po administered as single dose measured up to 24 hrs by LC-MS/MS analysis; type: ADME, organism-based; conditions: in vivo

COC(=O)OCOc1c2n(ccc1=O)N(C(c1ccccc1)c1ccccc1)[C@@H]1COCCN1C2=O
Activity [1]: Non-Toxic | Ratio AUC [2]: 3.22 | MRTlast [3]: 1.89 h | MRTlast [4]: 1.86 h | AUClast [5]: 8320 ng·h/g | Cmax [6]: 2005 ng/g | Ratio [7]: 2.2 | CC50 at 24 h [8]: 57 µM | Tmax [9]: 0.5 h | AUClast [10]: 3.935 µg·h/mL | Cmax [11]: 3431 ng/g

COC(=O)OCOc1c2n(ccc1=O)N([C@@H]1c3ccccc3SCc3c1ccc(F)c3F)[C@@H]1COCCN1C2=O [BALOXAVIR MARBOXIL]
Cmax [12]: 15342 ng/g | AUC [13]: 85348 ng·h/g | Ratio AUC [14]: 46.8 | Cmax [15]: 388 ng/g | AUClast [16]: 8959 ng·h/g | Kel [17]: 0.21 h⁻¹ | Kel [18]: 0.22 h⁻¹ | AUClast [19]: 4716 ng·h/g | Cmax [20]: 215 ng/g | Ratio AUC [21]: 0.7 | MRTlast [22]: 4.84 h | Tmax [23]: 2 h
